The results in this text go back to article PMC12280126, “Potent β-lactam-based tyrosyl-DNA phosphodiesterase 1 inhibitors identified by a virtual screen” (Scientific Reports, 2025).

Where “and” joins values, the source holds several entries; their conditions need not be identical. Identical values can stand only once.

One data set addresses T1, recombinant TDP1 (Homo sapiens, UniProt Q9NUW8).
T1 construct: incubated with 40 pM full-length recombinant TDP1 or TDP1 (148–608)
Briefly: in vitro gel-based fluorescence TDP1 catalytic assay. It is filed as biochemical. The following applies: TDP1 IC50, 40 pM recombinant TDP1, 1 nM N14Y DNA substrate, 15 min, room temperature. The procedure: We subjected select virtual screen hits to evaluation of TDP1 inhibitory potencies using in vitro gel-based fluorescence TDP1 catalytic assays (Fig. 2). […] To further explore this class of compounds, we purchased from TargetMol a library of approximately 90 β-lactams as 10 mM solutions in DMSO. […] We examined TDP1 inhibitory potencies of the compounds using the in vitro gel-based fluorescence assays as previously described[21]–[24]. Briefly, a 5’-Cy5-labeled DNA substrate (N14Y, 5’-Cy5-[…]-pY-3’, 1 nM) was incubated in TDP1 reaction buffer with recombinant TDP1 or truncated TDP1(148–608) (40 pM) in the absence or presence of inhibitors for 15 min at room temperature. […] The TDP1 inhibition IC50 values were calculated based on gel images of the cleavage product (N14P, 5’-Cy5-[…]-p-3’) (Fig. 3A and Table S2).
(§1) The inhibition of TDP1 and TDP2 were conducted according to gel-based methods as previously described[21]–[24],[45]. Briefly, 1 nM of the DNA substrate (N14Y, 5´Cy5-[…]-pY-3´) was incubated with 40 pM full-length recombinant TDP1 or TDP1 (148–608) in the absence or presence of inhibitors for 15 min at room temperature in TDP1 reaction buffer (50 mM Tris-HCl, pH 7.5, 80 mM KCl, 2 mM EDTA, 1 mM DTT, 40 µg/mL BSA and 0.01% Tween 20). The inhibition of TDP2 was also conducted by using similar conditions. […] The reactions of both TDP1 and TDP2 were stopped by adding an equal volume of gel loading buffer (99.5% (v/v) formamide, 5 mM EDTA). The samples were then subjected to a 20% denaturing PAGE gel followed by gel scanning using a Typhoon FLA 9500 scanner (GE Healthcare). The IC50 values of the TDP1 inhibitors were calculated by comparing the percentage of the cleavage product (N14P, 5´Cy5-[…]-p-3´) produced to that in the DMSO control. The IC50 values of the TDP2 inhibitors were calculated by comparing the percentage of the cleavage product (PN18, 5’-p-[…]-Cy5-3’) produced to that in the DMSO control.

For a further data set, the target named is T2, recombinant TDP2 (Homo sapiens, UniProt O95551).
T2 sequence (O95551 1-362): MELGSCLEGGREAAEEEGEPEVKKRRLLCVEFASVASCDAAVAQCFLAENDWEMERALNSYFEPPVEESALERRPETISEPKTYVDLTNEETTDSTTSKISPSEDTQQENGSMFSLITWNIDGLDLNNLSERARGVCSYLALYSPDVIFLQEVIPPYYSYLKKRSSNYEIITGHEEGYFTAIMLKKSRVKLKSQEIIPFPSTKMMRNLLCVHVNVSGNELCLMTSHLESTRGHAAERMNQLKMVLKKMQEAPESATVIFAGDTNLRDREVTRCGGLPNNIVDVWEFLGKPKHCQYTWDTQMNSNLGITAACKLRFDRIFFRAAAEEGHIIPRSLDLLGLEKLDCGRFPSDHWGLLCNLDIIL
Kind of data set: in vitro gel-based fluorescence TDP2 assay (counterscreen). In kind it is biochemical. The following applies: TDP2 IC50, 40 pM recombinant TDP2, 1 nM YN18 DNA substrate, 15 min, RT. The protocol: as §1
On the technique in general: The purpose of a counterscreen is to sort out artefacts and off-target activity.

In data set [1] the target is T3, TDP1(148–608) (Homo sapiens, UniProt Q9NUW8).
T3 construct: SPR experiments were recorded for the truncated TDP1(148–608) and the β-lactam compound
Briefly: gel-based fluorescence assay with truncated TDP1 compared with full-length TDP1. It is filed as biochemical. The procedure:
as §1

Data set [2] has as its target T3, TDP1(148–608). Briefly: Intact mass and PTM-mapping mass spectrometry for covalent modification. The following applies: enzyme-to-compound ratios 1:125 to 1:1000. The procedure:
We also digested the TDP1 following incubation with the compounds.

Data set [3] deals with human colon cancer cell line HCT116. Kind of data set: Cell viability, synergistic effect with camptothecin (CPT). It is filed as cell-based.
Protocol: We undertook further assays to determine whether the β-lactams could act in cells as TDP1 inhibitors.
The synergistic effects of the TDP1 inhibitors with CPT were tested in human colon cancer cell line HCT116 based on cell viability[22],[23]. Cells were first seeded in a 384-well black-clear plate until 30% confluency and then incubated with a serial dilution of CPT at the range of 0-100 nM (0, 12.5, 25, 50, 100 nM) in the present or the absence of desired concentrations of TDP1 inhibitors for 72 h at 37 °C. DMSO was used as control. Viable cell numbers were counted from the brightfield images taken by Biotek Cytation 5.
For data set [4], the target named is T3, TDP1(148–608). Kind of data set: Surface plasmon resonance (SPR) binding analysis. The text has this: A central mechanism of action of β-lactam antibiotics involves covalent modification of serine residues in PBPs. However, β-lactams are also known to covalently modify proteins more broadly[35],[42]. Mass spectroscopy has proven to be invaluable in characterizing protein modification by β-lactams[43],[44]. […] We evaluated cephalosporin C (11) in SPR studies. For SPR, we immobilized the TDP1(148–608) on an SPR chip and measured the binding of compounds as a function of concentration.
SPR experiments were recorded for the truncated TDP1(148–608) and the β-lactam compound with Biacore T200 system (GE Healthcare). Using the amine coupling kit (Cytiva), 11,000 RU of TDP1 was covalently immobilized on a CM5 chip (Cytiva) via amine coupling. The β-lactam compounds were prepared in HBS-P buffer (Cytiva). Experiments in high-performance mode was carried out using five injections (30 µL/min) of increasing concentrations of the β-lactam (50 nM – 25 µM) passed over the sensor chip for 180 s, followed by a 1200 s dissociation. Buffer and reference signals were subtracted and binding affinities (Kd) were determined using the Biacore T200 evaluation software (GE Healthcare).

The IC50 is the concentration that gives 50% inhibition. As usually defined, the Kd is the concentration at which binding is half-saturated.

T3 sequence (Q9NUW8 148-608): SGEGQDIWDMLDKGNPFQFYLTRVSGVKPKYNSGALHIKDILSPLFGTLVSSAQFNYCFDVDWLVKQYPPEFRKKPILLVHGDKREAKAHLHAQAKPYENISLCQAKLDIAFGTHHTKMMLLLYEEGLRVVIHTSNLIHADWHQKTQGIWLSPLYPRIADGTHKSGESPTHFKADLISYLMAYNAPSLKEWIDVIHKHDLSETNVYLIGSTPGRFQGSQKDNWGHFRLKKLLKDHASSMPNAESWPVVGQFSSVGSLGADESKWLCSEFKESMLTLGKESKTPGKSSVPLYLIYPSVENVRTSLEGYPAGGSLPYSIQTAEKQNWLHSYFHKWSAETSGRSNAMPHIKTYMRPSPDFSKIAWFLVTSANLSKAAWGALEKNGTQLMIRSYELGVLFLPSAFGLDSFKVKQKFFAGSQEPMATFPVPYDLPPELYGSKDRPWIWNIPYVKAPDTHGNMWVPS
T1 sequence (Q9NUW8 whole entry): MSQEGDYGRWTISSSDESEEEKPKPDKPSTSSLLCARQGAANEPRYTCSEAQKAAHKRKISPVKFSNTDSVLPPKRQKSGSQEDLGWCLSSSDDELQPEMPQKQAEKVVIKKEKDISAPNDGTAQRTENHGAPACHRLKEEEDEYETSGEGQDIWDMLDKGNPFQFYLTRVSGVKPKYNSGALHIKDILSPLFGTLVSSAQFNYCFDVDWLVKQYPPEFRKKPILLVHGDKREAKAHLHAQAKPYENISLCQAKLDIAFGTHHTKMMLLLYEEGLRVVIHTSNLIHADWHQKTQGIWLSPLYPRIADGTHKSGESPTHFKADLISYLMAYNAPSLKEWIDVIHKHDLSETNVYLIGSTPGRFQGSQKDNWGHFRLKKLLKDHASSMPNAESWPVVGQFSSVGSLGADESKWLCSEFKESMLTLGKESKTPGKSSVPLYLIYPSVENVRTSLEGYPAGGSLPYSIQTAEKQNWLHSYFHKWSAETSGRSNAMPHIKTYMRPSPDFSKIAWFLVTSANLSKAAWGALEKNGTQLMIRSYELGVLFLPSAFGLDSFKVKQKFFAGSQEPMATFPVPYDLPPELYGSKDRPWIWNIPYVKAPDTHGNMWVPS

Consider `CC(=O)OCC1=C(C(=O)O)N2C(=O)[C@@H](NC(=O)CCC[C@@H](N)C(=O)O)[C@H]2SC1` [compound 11, cephalosporin C], for which the IC50 was 4.43 µM and 4.4 µM on recombinant TDP1; greater than 100 µM at recombinant TDP2. Besides, at TDP1(148–608) [1], the “loss of inhibitory potencies with only the C-terminal residues TDP1(148–608) compared with full-length TDP1” value is listed as “more than 50 fold”. Moreover, the “covalent modification of TDP1 (intact mass analysis)” value on TDP1(148–608) [2] is listed as “not able to detect covalent modification of TDP1”. Further, the “effect in combination with TOP1 inhibitor CPT on cell viability” value in data set [3] (HCT116, 25 µM, CPT 0-100 nM, 72 h) is “acted synergistically”. In addition, the “cytotoxicity on its own” value in data set [3] (without CPT) is “no cytotoxicity”. The “binding mode from SPR (compound eluted off the chip without impacting binding capacity)” value at TDP1(148–608) [4] is “more likely bound non-covalently”. In addition, the Kd on TDP1(148–608) [4] (TDP1(148–608) immobilized on CM5 chip, 50 nM – 25 µM compound) is 11.6 µM.
